Reference: ChEMBL document CHEMBL1126953, “Quinoxaline N-oxide containing potent angiotensin II receptor antagonists: synthesis, biological properties, and structure-activity relationships” (J Med Chem, 1993)

Key:
[1] = target: T1, Angiotensin II receptor (AT-1) type-1 (Rattus norvegicus, UniProt P29089+P25095); assay: Binding affinity for Angiotensin II receptor, type 1 in rat adrenal cortical membranes using [125I]Sar1, Ile8-angiotensin II; assay type: cell membranes
T1 sequence (P29089 whole entry): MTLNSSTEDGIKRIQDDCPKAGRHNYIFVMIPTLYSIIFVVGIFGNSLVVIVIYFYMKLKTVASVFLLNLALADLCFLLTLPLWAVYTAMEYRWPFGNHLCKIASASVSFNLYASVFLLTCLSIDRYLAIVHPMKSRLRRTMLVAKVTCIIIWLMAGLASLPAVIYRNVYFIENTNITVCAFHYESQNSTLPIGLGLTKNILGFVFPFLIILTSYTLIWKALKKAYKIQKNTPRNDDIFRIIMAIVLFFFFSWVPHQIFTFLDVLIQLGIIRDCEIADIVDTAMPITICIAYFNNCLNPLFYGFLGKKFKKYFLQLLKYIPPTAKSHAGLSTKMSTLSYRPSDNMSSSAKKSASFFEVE
T1 sequence (P25095 whole entry): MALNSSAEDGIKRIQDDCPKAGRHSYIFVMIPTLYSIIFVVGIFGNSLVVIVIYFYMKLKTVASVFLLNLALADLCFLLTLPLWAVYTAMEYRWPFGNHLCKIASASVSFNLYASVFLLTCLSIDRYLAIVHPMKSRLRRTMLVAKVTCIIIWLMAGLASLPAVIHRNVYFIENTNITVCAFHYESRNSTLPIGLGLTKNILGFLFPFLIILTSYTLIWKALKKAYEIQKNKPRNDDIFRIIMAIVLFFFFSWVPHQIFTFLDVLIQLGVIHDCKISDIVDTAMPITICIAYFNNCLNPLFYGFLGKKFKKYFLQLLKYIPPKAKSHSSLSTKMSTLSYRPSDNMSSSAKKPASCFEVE

[2] = target: Angiotensin II receptor type 1 (Oryctolagus cuniculus) (UniProt P34976); assay: Antagonism of angiotensin II induced contraction of isolated rabbit aorta
Angiotensin II receptor type 1 (Oryctolagus cuniculus), sequence (P34976 whole entry, looked up): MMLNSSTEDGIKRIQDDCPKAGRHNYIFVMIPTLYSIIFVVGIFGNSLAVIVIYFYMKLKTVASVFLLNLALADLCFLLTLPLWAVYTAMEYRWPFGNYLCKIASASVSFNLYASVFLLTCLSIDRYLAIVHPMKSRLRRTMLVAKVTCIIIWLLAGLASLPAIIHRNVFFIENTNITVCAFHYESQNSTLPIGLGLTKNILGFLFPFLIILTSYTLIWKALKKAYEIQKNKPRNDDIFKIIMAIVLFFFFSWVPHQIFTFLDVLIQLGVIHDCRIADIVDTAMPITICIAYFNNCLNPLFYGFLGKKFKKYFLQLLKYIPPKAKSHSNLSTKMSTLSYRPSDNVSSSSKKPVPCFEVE

[3] = target: T1, Angiotensin II receptor (AT-1) type-1; assay: Binding affinity of compound in presence of bovine serum albumin (BSA) at 0.22% against rat adrenal Angiotensin II receptor, type 1; assay type: cell-free
[4] = target: T1, Angiotensin II receptor (AT-1) type-1; assay: Binding affinity of compound in presence of bovine serum albumin (BSA) at 0.01% against rat adrenal Angiotensin II receptor, type 1; assay type: cell-free
[5] = target: T1, Angiotensin II receptor (AT-1) type-1; assay: Binding affinity of compound in presence of bovine serum albumin (BSA) at 0% against rat adrenal Angiotensin II receptor, type 1; assay type: cell-free
[6] = target: T1, Angiotensin II receptor (AT-1) type-1; assay: Binding affinity of compound in presence of bovine serum albumin (BSA) at 0.01% against rat Angiotensin II receptor, type 1; assay type: cell-free
[7] = target: T1, Angiotensin II receptor (AT-1) type-1; assay: Binding affinity of compound in presence of bovine serum albumin (BSA) at 0% against rat Angiotensin II receptor, type 1; assay type: cell-free

SMILES	Ki [1] [nM]	Kb [2] [nM]	other results
CCCCc1nc2ccccc2nc1Oc1ccc(-c2ccccc2-c2nn[nH]n2)cc1	137	290	Ki [3]: 2200 nM
CCCCc1c(Oc2ccc(-c3ccccc3-c3nn[nH]n3)cc2)nc2c(C(=O)O)c(N)ccc2[n+]1[O-]	7.4	0.25	
CCCCc1c(Oc2ccc(-c3ccccc3-c3nn[nH]n3)cc2)nc2c(C(=O)O)c(OC(C)C)ccc2[n+]1[O-]	28		
Cc1c(Oc2ccc(-c3ccccc3-c3nn[nH]n3)cc2)nc2ccccc2[n+]1[O-]	550	480	Ki [3]: 24400 nM; Ki [4]: 550 nM
CCCCc1nc2ccc(F)c(C(=O)O)c2nc1Oc1ccc(-c2ccccc2-c2nn[nH]n2)cc1	21	0.97	
CCCCc1c(Oc2ccc(-c3ccccc3-c3nn[nH]n3)cc2)nc2c(C(=O)O)c(OC)ccc2[n+]1[O-]	17	0.13	
CCCCc1c(Oc2ccc(-c3ccccc3-c3nn[nH]n3)cc2)nc2c(C(=O)O)cccc2[n+]1[O-]		0.5	
CCCCc1c(Oc2ccc(-c3ccccc3-c3nn[nH]n3)cc2)nc2c(C(=O)O)c(OCC(F)(F)F)ccc2[n+]1[O-]	22	2	
CCCCc1c(Oc2ccc(-c3ccccc3-c3nn[nH]n3)cc2)nc2c(C(=O)O)c(OCC)ccc2[n+]1[O-]	1.3	0.026	Ki [4]: 1.3 nM; Ki [5]: 0.4 nM
CCCCc1c(Oc2ccc(-c3ccccc3-c3nn[nH]n3)cc2)nc2ccccc2[n+]1[O-]	71	230	Ki [3]: 580 nM; Ki [4]: 71 nM
CCCCc1c(Oc2ccc(-c3ccccc3-c3nn[nH]n3)cc2)nc2c(C(=O)O)c(OCCC)ccc2[n+]1[O-]	68	0.19	
CCCCc1c(Oc2ccc(-c3ccccc3-c3nn[nH]n3)cc2)nc2c(C(=O)O)c(F)ccc2[n+]1[O-]	9	0.58	
CCCCc1nc2cccc(C(=O)O)c2nc1Oc1ccc(-c2ccccc2-c2nn[nH]n2)cc1	46	2.1	Ki [6]: 46 nM; Ki [7]: 5.5 nM
CCCCc1nc2ccccc2[n+]([O-])c1Oc1ccc(-c2ccccc2-c2nn[nH]n2)cc1	4.5	0.44	
CCCc1nc2cccc(C(=O)O)c2nc1Oc1ccc(-c2ccccc2-c2nn[nH]n2)cc1	190	13	
CCCCOc1ccc2c(nc(Oc3ccc(-c4ccccc4-c4nn[nH]n4)cc3)c(CCCC)[n+]2[O-])c1C(=O)O	50	0.27	
CCCCc1nc2ccc(OCC)c(C(=O)O)c2nc1Oc1ccc(-c2ccccc2-c2nn[nH]n2)cc1	44	0.12	
Cc1nc2ccccc2nc1Oc1ccc(-c2ccccc2-c2nn[nH]n2)cc1		2300	
